Laboratory results from patent US10323017B2, “Antioxidants and methods to maximize performance” (University of Ottawa, priority 2015, dated 2019).

Tests used:
[1] = Hexadecane autoxidation at 160° C. (hydroperoxide formation), stirred flow reactor, initiated by tetralin hydroperoxide; details: for effect of added palmitic acid on inhibitory activity: 1 mM palmitic acid; for effect of added base 2,4,6-tri-tert-butylpyridine on inhibition of autoxidation: TTBP 1 mM vs. no base
Protocol: To evaluate the effect of an added sacrificial base on the high-temperature radical-trapping activity of antioxidants, autoxidations of n-hexadecane were carried out at 160° C. in a stirred flow reactor in the absence of or presence of a base, where a constant positive pressure of O2 was used to stir the medium and prevent mass transfer from becoming rate limiting (Igarashi, J., et al., J. Am. Chem. Soc. 1992, 114, 7727; Jensen, R.; et al., J. Am. Chem. Soc. 1979, 101, 7574). Tetralin hydroperoxide (10 mM) was used as a radical initiator since inhibited autoxidations in the absence of an initiator were very slow. At regular intervals, aliquots of the reaction mixture were removed, cooled and the concentration of hydroperoxide products determined by reaction with a developed fluorogenic phosphine (Hanthorn, J. J., et al., Chem. Commun. 2012, 48, 10141). Autoxidations were followed for the first 2% of the reaction, based on hydroperoxide formation, since beyond ca. 3% conversion, the hydroperoxide yield begins to decrease and highly complex mixtures of ketones, alcohols, carboxylic acids and esters arise.
n-Hexadecane (100 mL) was thoroughly degassed with argon and heated to 160° C. while argon was continuously bubbled through the liquid. […] For those experiment where acid or base was present, as noted in the figure captions, they were also added at this point. Aliquots (0.5 mL) were removed every 5 minutes, and allowed to cool to room temperature for analysis. Four duplicates (30 μL) of each sample were loaded into separate wells of a 96-well microplate and the automated reagent dispenser of the microplate reader was used to dilute each sample with tert-amyl alcohol (200 μL) and a solution of fluorogenic phosphine dye solution (20 μL of a 250 μM stock solution in acetonitrile) immediately before reading. The plate was stirred for 8 seconds, allowed to rest for 2 more seconds, and the fluorescence of each well was measured every second for 60 seconds (absorption at 340; emission at 425). The concentration of hydroperoxide was determined from the rate of phosphine oxidation using the rate constant for the reaction of the dye with secondary hydroperoxides in tert-amyl alcohol (k=1.2 M^−1s^−1) assuming pseudo-first-order kinetics. See sample data from an uninhibited autoxidation and one inhibited with diarylamine 4 alongside analogous experiments in the absence of the initiator tetralin hydroperoxide, or O2 (FIGS. 2C-E). Further results are presented in FIGS. 7 to 17 for hexadecane autoxidations and FIGS. 18 and 19 for tetralin autooxidations in the presence and absence of antioxidants, and at varying pH. FIGS. 14-17 correspond to hexadecane autoxidations carried out for diarylamine 4 in the presence of four different bases. FIGS. 7-13 correspond to hexadecane autoxidations carried out for compounds 1-7 and 20 in the presence and absence of a base, specifically, 2,4,6-tri-tert-butylpyridine. FIG. 5A corresponds to hexadecane autoxidations carried out for diarylamine 4 and 7 in the presence and absence of palmitic acid.

[2] = pKa measurement by titration of hydrochloride salts with NaOH; assay type: physicochemical; details: 4:1 (v:v) CH3CN:H2O solution of the hydrochloride salt; in 4:1 CH3CN:H2O; read-out: pKa of the conjugate acid
Protocol: Solutions of the hydrochloride salts of diarylamines 1-7 (1 mM) were made up in 4:1 CH3CN:H2O (3.0 mL) and the pH was measured using an Accument Electrode microbe referenced to Ag/Ag^+ as a function of added volumes of NaOH (10 mM). […] The titration curves for the diarylamines are shown in FIGS. 6A and 6B (averages of triplicate experiments), and the pKas reported in the manuscript correspond to the pH when 0.5 molar equivalents of NaOH were added to the solution.

[3] = Diarylamine stability to oxygen at 160° C. in n-hexadecane; assay type: physicochemical
Protocol: n-Hexadecane (100 mL) was thoroughly degassed with argon and then heated to 160° C. while argon was continuously bubbled through the liquid. Once the temperature stabilized, 2.5 mmol of diarylamines 1-7 were added to the solution and the flow of argon was replaced with 02. Aliquots (100 μL) were removed every 10 minutes, and added to 900 μL of a 2.2 mM solution of benzyl alcohol (internal standard) in 2% isopropanol/hexanes (HPLC grade). Samples were analysed using a Waters 2695 Alliance HPLC at a flow rate of 2.1 mL min^−1 (8.0% PrOH/hexanes) on a Sunfire Silica column (5 μm, 4.6×250 mm) and determined by their UV absorbance.

[4] = Peroxyl radical clock kinetics; details: double reciprocal plot
Protocol: Peroxyl radical clocking experiments (to determine the inhibition rate constant kinh) for compound 5 were carried out according to our previously published reports (see Hanthorn, J., et al. J. Org. Chem. 2012, 77, 6895). Inhibition rate constants of the other compounds are as reported previously. A double reciprocal plot was used to obtain km=2.4×10^7 M^−1s^−1 for compound 5.

[5] = Cyclic voltammetry (standard potential); assay type: physicochemical; details: 1 mM in CH3CN containing 0.1 M Bu4NPF6
Protocol: A standard potential for diarylamine 5 was measured from its cyclic voltammagram obtained using a BASi potentiostat (available from BASi Analytical Instruments, West La Fayette, Ind., USA) with a glassy carbon working electrode, a platinum counter electrode and a Ag/AgNO3 reference electrode. The diarylamine was dissolved in degassed acetonitrile containing 0.1 M tetrabutylammonium hexafluorophosphate as supporting electrolyte and the current recorded in the range of 0-1 V at a scan rate of 200 mV/s. Standard potentials of the other compounds are reported in previous publications. A cyclic voltammogram of diarylamine 5 (1 mM in CH3CN containing 0.1 M Bu4NPF6) vs. Ag/Ag^+ gave E^0=0.84 V vs. NHE.

[6] = Tetralin autoxidation at 70° C. initiated by azobis(α-tetralin); details: hexanoic acid 50 μM, antioxidant 2 μM
Protocol: Fresh tetralin was prepared by passing it through a column of silica. Tetralin (1.0 mL) was added to a glass vial, followed by chlorobenzene (1.0 mL). A magnetic Teflon-coated stir bar was added, and the vial was capped with a rubber septum. The vial was then placed in a heating block at 70° C. for 5 minutes. Antioxidant (4, 7) (0.002 mmol) were added. For those experiment where acid was present, as noted in the figure captions, hexanoic acid (0.050 mmol) was also added at this point. Azobis(α-tetralin) (0.1 mmol) was added as the initiator. The solution was stirred for 30 s and the first sample was taken. 100 μL samples were taken at regular intervals and added to 900 μL of a solution containing 2.2 mM benzyl alcohol, 10 mM butylated-hydroxytoluene, and 10 mM triphenylphosphine in 2% isopropanol/hexanes (HPLC grade). Samples were analysed using a Waters 2695 Alliance HPLC (2.0% iPrOH/hexanes, 1.6 ml min^−1; 10 min; Sunfire Silica column (5 μm, 4.6×250 mm)) and analysed by UV absorbance.

[7] = TTBP 1 mM, 40 μM antioxidant, 160° C.

Row | pKa [2] | Compound | inhibition of autoxidation in the presence of added base, compared with 7 [1, 7] | effect of added palmitic acid on inhibitory activity ([1]; 40 μM antioxidant, 160° C.) | effect of added base 2,4,6-tri-tert-butylpyridine on inhibition of autoxidation ([1]; 40 μM antioxidant, 160° C.) | other results
1 | 8.8 ± 0.1 | CCCCN(CCCC)c1ncc(Nc2cnc(N(CCCC)CCCC)nc2)cn1 [Compound 2, N^2,N^2-Dibutyl-N^5-(2-(dibutylamino)pyrimidin-5-yl)pyrimidine-2,5-diamine] | particularly good |  |  | 
2 | 8.4 ± 0.1 | CCCCCCN(CCCCCC)c1ccc(Nc2ccccc2)cn1 [Compound 3, N^2,N^2-Dihexyl-N^5-phenylpyridine-2,5-diamine] | superior to 7 |  |  | stability to O2 [3]: relatively unstable
3 | 8.2 ± 0.2 | CCCCCCN(CCCCCC)c1ncc(Nc2ccccc2)cn1 [Compound 4, N^2,N^2-Dihexyl-N^5-phenylpyrimidine-2,5-diamine] | particularly good | disrupt the inhibitory activity | unprecedented inhibited period | difference in Δt2% (delay to reach [ROOH]=2%) relative to 7 ([1]; 40 μM antioxidant, TTBP 1 mM, 160° C.): 12.5 fold; effect of other bases on activity ([1]; cesium carbonate, potassium carbonate, or Primene 81-R (1 mM), 160° C.): rescued
4 | 8.3 ± 0.1 | CCCCCCc1ncc(Nc2cnc(N(CCCC)CCCC)nc2)cn1 [Compound 5, N^2,N^2-Dibutyl-N^5-(2-hexylpyrimidin-5-yl)pyrimidine-2,5-diamine] | particularly good |  |  | inhibition rate constant kinh (printed km) [4]: 2.4e+07 M⁻¹ s⁻¹; standard potential E^0 [5]: 0.84 V vs. NHE
5 | 4.6 ± 0.3 | c1ccc(Nc2ccccc2)cc1 [Compound 7, reference compound] |  | unchanged | no effect | effect of added base 2,4,6-tri-tert-butylpyridine on inhibition of autoxidation ([1]; 40 μM antioxidant, 160° C., listed as diphenylamine): did not impact the reactivity; effect of added acid on antioxidant activity [6]: does not affect the activity
6 |  | CCCCCCCCN(CCCCCCCC)c1ncc(Nc2ccc(C(C)(C)C)cc2)cn1 [Compound 20, N^5-(4-(tert-butyl)phenyl)-N^2,N^2-dioctylpyrimidine-2,5-diamine] |  |  |  | stability and reactivity compared with compound 4 ([1]; 40 μM, with and without TTBP 1 mM, 160° C. (FIG. 9)): slightly increased stability and reactivity
